Read-outs that look alike come from different tables or passages of the source.
Assays:
[1] = system: Ebola virus/H.sapiens-tc/COD/1976/Yambuku-Mayinga (EBOV/May); experiment: microbe, parasite or virus in culture; format: cell-based; settings: Zaire ebolavirus, HeLa
Vaccinia Virus = experiment: microbe, parasite or virus in culture; format: cell-based; settings: Orthopoxvirus vaccinia
Dengue Virus 2 = experiment: microbe, parasite or virus in culture; format: cell-based; settings: Vero 76
Hepatitis B virus = experiment: microbe, parasite or virus in culture; format: cell-based; settings: HepG2 2.2.15
[2] = microsomes
SARS-CoV-2 Spike RBD = SARS-CoV-2 Spike RBD (Severe acute respiratory syndrome coronavirus 2, UniProt P0DTC2); format: binding
[3] = system: Marburg virus/H.sapiens-tc/AGO/2005/Ang-1379v (MARV/Ang); experiment: organism not typed; format: cell-based; settings: HeLa

COc1ccc2nc3cc(Cl)ccc3c(Nc3cc(CN4CCCC4)c(O)c(CN4CCCC4)c3)c2n1 [Pyronaridine, 4-[(7-Chloro-2-methoxybenzo[b][1,5]naph-thyridin-10-yl)amino]-2,6-bis(1-pyrrolidinylmethyl)phenol phosphate (1:4)]
IC50 [1]: 1010 ± 580 nM
EC50 (Vaccinia Virus): > 1200 nM
EC90 (Vaccinia Virus): > 1200 nM
EC50 (Dengue Virus 2): 3200 nM
EC50 (Hepatitis B virus): 4520 nM
EC90 (Hepatitis B virus): > 100000 nM
Clint [2]: 15.5
Dextromethorphan: compound, t1/2 normalized to dextromethorphan control [2]: 16.7
t1/2 ([2]; monkey): 1.5 h
Kd (SARS-CoV-2 Spike RBD; pH5.2): 618 nM
Kd (SARS-CoV-2 Spike RBD; pH 7.4): 647 nM
IC50 [3]: 2720 ± 970 nM
IC50 ([3]; read-out: IC50 range against two strains of Marburg virus): 1010 to 2720 nM

Reference: US11696914B1 (priority 2019, dated 2023)
